Experimental data as given in ChEMBL document CHEMBL1201861, “Genomics of Drug Sensitity in Cancer screening data, Wellcome Trust Sanger Institute”.

Assays:
Calu-3 = experiment: cells; type: functional, cell-based, Homo sapiens; details: Homo sapiens, Calu-3;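 also: growth inhibition of human Calu-3 cells, determined with a cell viability assay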
Description: SANGER: Inhibition of human Calu-3 cell growth in a cell viability assay.

D-566MG = experiment: cells; type: functional, cell-based, Homo sapiens; details: Homo sapiens, D-566MG
H9 = experiment: cells; type: functional, cell-based, Homo sapiens; details: Homo sapiens, H9
Description: SANGER: Inhibition of human H9 cell growth in a cell viability assay.

HCC1419 = experiment: cells; type: functional, cell-based, Homo sapiens; details: Homo sapiens, HCC1419;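 also: growth inhibition of human HCC1419 cells, read out as cell viability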
Description: SANGER: Inhibition of human HCC1419 cell growth in a cell viability assay.

HO-1-N-1 = experiment: cells; type: functional, cell-based, Homo sapiens; details: Homo sapiens, HO-1-N-1;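 also: growth inhibition of human HO-1-N-1 cells, read out with a cell viability assay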
Description: SANGER: Inhibition of human HO-1-N-1 cell growth in a cell viability assay.

HT-29 = experiment: cells; type: functional, cell-based, Homo sapiens; details: Homo sapiens, HT-29;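 also: growth inhibition of human HT-29 cells, read out by a cell viability assay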
Description: SANGER: Inhibition of human HT-29 cell growth in a cell viability assay.

IGR-1 = experiment: cells; type: functional, cell-based, Homo sapiens; details: Homo sapiens, IGR-1;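 also: growth inhibition of human IGR-1 cells, read out with a cell viability assay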
Description: SANGER: Inhibition of human IGR-1 cell growth in a cell viability assay.

KOSC-2 = experiment: cells; type: functional, cell-based, Homo sapiens; details: Homo sapiens, KOSC-2;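 also: growth inhibition of KOSC-2 cells, read out by a cell viability assay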
Description: SANGER: Inhibition of human KOSC-2 cell growth in a cell viability assay.

LU-135 = experiment: cells; type: functional, cell-based, Homo sapiens; details: Homo sapiens, LU-135
Description: SANGER: Inhibition of human LU-135 cell growth in a cell viability assay.

MDA-MB-157 = experiment: cells; type: functional, cell-based, Homo sapiens; details: Homo sapiens, MDA-MB-157
Description: SANGER: Inhibition of human MDA-MB-157 cell growth in a cell viability assay.

MHH-ES-1 = experiment: cells; type: functional, cell-based, Homo sapiens; details: Homo sapiens, MHH-ES-1
Description: SANGER: Inhibition of human MHH-ES-1 cell growth in a cell viability assay.

MIA PaCa-2 = experiment: cells; type: functional, cell-based, Homo sapiens; details: Homo sapiens, MIA PaCa-2;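 also: growth inhibition of MIA PaCa-2 cells, read out with a cell viability assay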
Description: SANGER: Inhibition of human MIA-PaCa-2 cell growth in a cell viability assay.

NCI-H2342 = experiment: cells; type: functional, cell-based, Homo sapiens; details: Homo sapiens, NCI-H2342;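 also: growth inhibition of the cancer cell line, determined with a cell viability assay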
Description: SANGER: Inhibition of human NCI-H2342 cell growth in a cell viability assay.

NCI-H2405 = experiment: cells; type: functional, cell-based, Homo sapiens; details: Homo sapiens, NCI-H2405;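 also: growth inhibition of the human cell line, read out with a cell viability assay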
Description: SANGER: Inhibition of human NCI-H2405 cell growth in a cell viability assay.

NCI-H2452 = experiment: cells; type: functional, cell-based, Homo sapiens; details: Homo sapiens, NCI-H2452;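 also: growth inhibition of NCI-H2452 cells, read out with a cell viability assay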
Description: SANGER: Inhibition of human NCI-H2452 cell growth in a cell viability assay.

OAW-42 = experiment: cells; type: functional, cell-based, Homo sapiens; details: Homo sapiens, OAW-42;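 also: growth inhibition of OAW-42 cells, read out with a cell viability assay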
Description: SANGER: Inhibition of human OAW-42 cell growth in a cell viability assay.

PC-14 = experiment: cells; type: functional, cell-based, Homo sapiens; details: Homo sapiens, PC-14;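 also: cell viability assay measuring inhibition of PC-14 cell growth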
Description: SANGER: Inhibition of human PC-14 cell growth in a cell viability assay.

RH-18 = experiment: cells; type: functional, cell-based, Homo sapiens; details: Homo sapiens, Rh18;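 also: growth inhibition of human RH-18 cells, read out with a cell viability assay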
Description: SANGER: Inhibition of human RH-18 cell growth in a cell viability assay.

RMG-I = experiment: cells; type: functional, cell-based, Homo sapiens; details: Homo sapiens, RMG-I;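 also: growth inhibition of human RMG-I cells, read out with a cell viability assay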
Description: SANGER: Inhibition of human RMG-I cell growth in a cell viability assay.

SK-MEL-28 = experiment: cells; type: functional, cell-based, Homo sapiens; details: Homo sapiens, SK-MEL-28;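 also: growth inhibition of human SK-MEL-28 cells, read out with a cell viability assay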
Description: SANGER: Inhibition of human SK-MEL-28 cell growth in a cell viability assay.

SW 1116 = experiment: cells; type: functional, cell-based, Homo sapiens; details: Homo sapiens, SW 1116;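 also: growth inhibition of SW1116 cells, read out with a cell viability assay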
Description: SANGER: Inhibition of human SW1116 cell growth in a cell viability assay.

SW948 = experiment: cells; type: functional, cell-based, Homo sapiens; details: Homo sapiens, SW948;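 also: growth inhibition of SW948 cells, read out with a cell viability assay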
Description: SANGER: Inhibition of human SW948 cell growth in a cell viability assay.

SiHa = experiment: cells; type: functional, cell-based, Homo sapiens; details: Homo sapiens, SiHa;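 also: Viability-based readout of growth inhibition in SiHa cells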
Description: SANGER: Inhibition of human SiHa cell growth in a cell viability assay.

T47D = experiment: cells; type: functional, cell-based, Homo sapiens; details: Homo sapiens, T47D;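 also: growth inhibition of human T47D cells, measured with a cell viability assay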
Description: SANGER: Inhibition of human T47D cell growth in a cell viability assay.

A204 = experiment: cells; type: functional, cell-based, Homo sapiens; details: Homo sapiens, A204;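 also: growth inhibition of human A204 cells, read out with a cell viability assay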
Description: SANGER: Inhibition of human A204 cell growth in a cell viability assay.

ABC-1 = experiment: cells; type: functional, cell-based, Homo sapiens; details: Homo sapiens, ABC-1;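 also: growth inhibition of human ABC-1 cells, read out by a cell viability assay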
Description: SANGER: Inhibition of human ABC-1 cell growth in a cell viability assay.

CAL-39 = experiment: cells; type: functional, cell-based, Homo sapiens; details: Homo sapiens, CAL-39;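 also: cell viability assay measuring growth inhibition of CAL-39 cells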
Description: SANGER: Inhibition of human CAL-39 cell growth in a cell viability assay.

CAL-72 = experiment: cells; type: functional, cell-based, Homo sapiens; details: Homo sapiens, CAL-72;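 also: cell viability assay measuring inhibition of proliferation in the CAL-72 cell line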
Description: SANGER: Inhibition of human CAL-72 cell growth in a cell viability assay.

CAL-85-1 = experiment: cells; type: functional, cell-based, Homo sapiens; details: Homo sapiens, CAL-85-1;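 also: growth inhibition of human CAL-85-1 cells, read out with a cell viability assay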
Description: SANGER: Inhibition of human CAL-85-1 cell growth in a cell viability assay.

TGBC11TKB = experiment: cells; type: functional, cell-based, Homo sapiens; details: Homo sapiens, TGBC11TKB;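 also: growth inhibition of human TGBC11TKB cells, measured by a cell viability assay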
Description: SANGER: Inhibition of human TGBC11TKB cell growth in a cell viability assay.

TI-73 = experiment: cells; type: functional, cell-based, Homo sapiens; details: Homo sapiens, TI-73;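 also: cell viability assay measuring how much compounds suppress growth of the cultured cell line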
Description: SANGER: Inhibition of human TI-73 cell growth in a cell viability assay.

TYK-nu = experiment: cells; type: functional, cell-based, Homo sapiens; details: Homo sapiens, TYK-nu;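 also: growth inhibition of human TYK-nu cells, read out by a cell viability assay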
Description: SANGER: Inhibition of human TYK-nu cell growth in a cell viability assay.

EW-12 = experiment: SANGER: Inhibition of human EW-12 cell growth in a cell viability assay.; type: functional, cell-based
IM-9 = experiment: SANGER: Inhibition of human IM-9 cell growth in a cell viability assay.; type: functional, cell-based; details: Homo sapiens, IM-9
LC-1F = experiment: cells; type: functional, cell-based, Homo sapiens; details: Homo sapiens, LC-1F;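 also: growth inhibition of human LC-1F cells, read out with a cell viability assay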
Description: SANGER: Inhibition of human LC-1F cell growth in a cell viability assay.

NCI-H64 = experiment: cells; type: functional, cell-based, Homo sapiens; details: Homo sapiens, NCI-H64;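 also: growth inhibition of NCI-H64 cells, read out with a cell viability assay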
Description: SANGER: Inhibition of human NCI-H64 cell growth in a cell viability assay.

SCC-3 = experiment: cells; type: functional, cell-based, Homo sapiens; details: Homo sapiens, SCC-3;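 also: cell viability assay measuring inhibition of SCC-3 cell growth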
Description: SANGER: Inhibition of human SCC-3 cell growth in a cell viability assay.

SKM-1 = experiment: SANGER: Inhibition of human SKM-1 cell growth in a cell viability assay.; type: functional, cell-based

COc1cc2c(Nc3ccc(NC(=O)c4ccccc4)cc3)ncnc2cc1OCCCN1CCOCC1
IC50 (Calu-3): > 4 µM | IC50 (D-566MG): 1.79 µM | IC50 (H9): 0.93 µM | IC50 (HCC1419): > 4 µM | IC50 (HO-1-N-1): 2.15 µM | IC50 (HT-29): > 4 µM | IC50 (IGR-1): > 4 µM | IC50 (KOSC-2): > 4 µM | IC50 (LU-135): 2.66 µM | IC50 (MDA-MB-157): > 4 µM | IC50 (MHH-ES-1): 2.13 µM | IC50 (MIA PaCa-2): 3.91 µM | IC50 (NCI-H2342): > 4 µM | IC50 (NCI-H2405): > 4 µM | IC50 (NCI-H2452): > 4 µM | IC50 (OAW-42): > 4 µM | IC50 (PC-14): > 4 µM | IC50 (RH-18): > 4 µM | IC50 (RMG-I): > 4 µM | IC50 (SK-MEL-28): > 4 µM | IC50 (SW 1116): > 4 µM | IC50 (SW948): > 4 µM | IC50 (SiHa): > 4 µM | IC50 (T47D): > 4 µM | IC50 (A204): > 4 µM | IC50 (ABC-1): 1.4 µM | IC50 (CAL-39): > 4 µM | IC50 (CAL-72): > 4 µM | IC50 (CAL-85-1): > 4 µM | IC50 (TGBC11TKB): > 4 µM | IC50 (TI-73): > 4 µM | IC50 (TYK-nu): > 4 µM

COc1cc(N2CCN(C)CC2)ccc1Nc1ncc2c(n1)N(C)c1ccccc1C(=O)N2C
IC50 (EW-12): > 8 µM | IC50 (IM-9): > 8 µM | IC50 (LC-1F): > 8 µM | IC50 (NCI-H64): > 8 µM | IC50 (SCC-3): > 8 µM | IC50 (SKM-1): > 8 µM

COc1cc2ncn(-c3cc(OCc4ccccc4S(C)(=O)=O)c(C#N)s3)c2cc1OC [GSK-319347A]
IC50 (EW-12): > 5 µM | IC50 (IM-9): > 5 µM | IC50 (LC-1F): > 5 µM | IC50 (NCI-H64): > 5 µM | IC50 (SCC-3): > 5 µM | IC50 (SKM-1): > 5 µM

CC[C@H](CO)Nc1nc(NCc2ccccc2)c2ncn(C(C)C)c2n1 [SELICICLIB]
IC50 (EW-12): > 16 µM | IC50 (IM-9): > 16 µM | IC50 (LC-1F): > 16 µM | IC50 (NCI-H64): > 16 µM | IC50 (SCC-3): 14.3 µM | IC50 (SKM-1): > 16 µM

CC1(C)CNc2cc(NC(=O)c3cccnc3NCc3ccncc3)ccc21 [MOTESANIB]
IC50 (Calu-3): > 2 µM | IC50 (D-566MG): > 2 µM | IC50 (H9): > 2 µM | IC50 (HCC1419): > 2 µM | IC50 (HO-1-N-1): > 2 µM | IC50 (HT-29): > 2 µM | IC50 (IGR-1): > 2 µM | IC50 (KOSC-2): > 2 µM | IC50 (LU-135): > 2 µM | IC50 (MDA-MB-157): > 2 µM | IC50 (MHH-ES-1): > 2 µM | IC50 (MIA PaCa-2): > 2 µM | IC50 (NCI-H2342): > 2 µM | IC50 (NCI-H2405): > 2 µM | IC50 (NCI-H2452): > 2 µM | IC50 (OAW-42): > 2 µM | IC50 (PC-14): > 2 µM | IC50 (RH-18): > 2 µM | IC50 (RMG-I): > 2 µM | IC50 (SK-MEL-28): > 2 µM | IC50 (SW 1116): > 2 µM | IC50 (SW948): > 2 µM | IC50 (SiHa): > 2 µM | IC50 (T47D): > 2 µM | IC50 (A204): 0.519 µM | IC50 (ABC-1): > 2 µM | IC50 (CAL-39): > 2 µM | IC50 (CAL-72): > 2 µM | IC50 (CAL-85-1): > 2 µM | IC50 (TGBC11TKB): > 2 µM | IC50 (TI-73): > 2 µM | IC50 (TYK-nu): > 2 µM
